From patent US5726195A, “Aminoacyl adenylate mimics as novel antimicrobial and antiparasitic agents” (Cubist Pharmaceuticals, Inc., priority 1996, dated 1998) come the findings set out here.

Assay [1] deals with Streptococcus pyogenes (ATCC 8668). Kind of assay: Mouse protection test against wild type Streptococcus pyogenes. The class given is in vivo, Streptococcus pyogenes; female CD-1 mice. As to conditions: 0.08 mg/kg sc, repeated at 4 hours, 7 days.
The test system of assay [2] is multidrug resistant Streptococcus pyogenes (#OTTO 209). In words: Mouse protection test against multidrug resistant Streptococcus pyogenes. The class given is in vivo, Streptococcus pyogenes; female CD-1 mice. Conditions: for Protective % / Number of Alive: repeated at 4 hours, 7 days; for Number of Alive: of 5 mice. An excerpt:
The mouse protection test is an industry standard for measuring the efficacy of a test compound in vivo [for examples of this model see J. J. Clement, et al., Antimicrobial Agents and Chemotherapy, 38 (5), 1071-1078, (1994)]. As exemplified below, this test was used to show the in vivo efficacy of the compounds of the present invention against bacteria.
The in vivo activity of compound X against multidrug resistant bacteria was established by infecting female CD-1 mice (Charles River Lab, Massachusettes) weighing 20-24 g intraperitoneally with multidrug resistant Streptococcus pyogenes inoculum. The inoculum was prepared from multidrug resistant Streptococcus pyogenes (resistant to erythromycin, tetracycline, and chloramphenicol, #OTTO 209 obtained from Dr. Pentti Huovinen, National Public Health Institute, Finland) which was cultured in brain heart infusion broth (Baltimore Biological Laboratories, Maryland) at 37° C. for 2 hr, and then 0.1 ml of the culture was diluted with the medium to 1.0 ml for reading its OD at 600 nm (0.12). The turbidity of a 0.5 McFarland standard is equivalent to OD600 0.1, or 10^8 cfu/ml. Then, 4×10^8 cfu of the bacteria (333 μl was added to 20 ml of phosphate buffered saline (Sigma P-0261 ) containing 10 % hog gastric mucin (Sigma M-2378). All animals were injected with 0.5 ml of the inoculum, equivalent to 10^7 cfu/mouse which is the dose causing ~100% death of the animals without treatment.
Compound X (60 mg) was dissolved in 6.0 ml of 0.05M Tris.HCl (pH 8.8) to give a solution of 10 mg/ml. This solution was serially diluted two times with 0.05M Tris.HCl by 5-fold (1.0 ml to 5.0 ml) to give 2 and 0.4 mg/ml solutions. The known antibiotic vancomycin HCl (Sigma V-2002, in normal saline, 1 mg/ml, pH 6.0-7.0) was used as a positive control. All the solutions were filtered with 0.2 μm Nalgene syringe filter. Immediately after the bacterial inoculation, group 1 animals were subcutaneously (sc) injected with 0.05M Tris.HCl (no antibiotic) and groups 2 to 4 were given compound X sc at 4, 20 and 100 mg/kg, respectively. Group 5 animals received vancomycin sc at 10 mg/kg. These injections were repeated once at 4 hours after the inoculation for the respective groups. The injection volume at each time was 10 ml per kilogram of body weight. The 50% protective dose (PD50) is calculated on the basis of the number of mice surviving 7 days after inoculation.

Assay [3] has as its target E. Coli. IleRS (isoleucyl-tRNA synthetase) (Escherichia coli, UniProt P00956). Kind of assay: Inhibition of isoleucyl-tRNA synthetase (aminoacylation of tRNA with [3H]isoleucine). The class given is biochemical. Conditions: read-out: IC50 E.Coli. IleRS; E. coli enzyme; irreversible inhibitors: values are 50% of the active enzyme concentration. The method, boiled down:
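Enzyme (0.08-2.0 nM, preferably 0.4 nM) preincubated 20 min at 25° C. with compound, then reacted at 25° C. with 4 mM ATP, 5-20 μM [3H]isoleucine, 90 μM crude or 2 μM specific tRNA in HEPES pH 7.5. TCA-precipitable radioactivity counted; IC50 relative to uninhibited activity.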

Assay [4] relates to H. influenza ATCC 49247. Kind of assay: Whole cell antimicrobial screen, MIC. It is filed as cell-based. In a few lines: (§1)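 NCCLS microdilution; 5×10^4 cells/well; 2-fold serial dilutions, 0.1-500 μg/mL final; DMSO ≤1% final; overnight, 30-37° C; OD read; MIC = lowest conc. with no growth.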
For assay [5], the system named is S. aureus ATCC 6538P. Kind of assay: Whole cell antimicrobial screen, MIC. The class given is cell-based. Conditions: Staphylococcus aureus, ATCC6538P. In a few lines: as §1
The subject of assay [6] is E. faecium ATCC 6569. Kind of assay: Whole cell antimicrobial screen, MIC. The class given is cell-based. Conditions: Enterococcus faecium, ATCC6569. In a few lines: as §1

In brackets after ≈: the same amount, converted by molar mass.

E. Coli. IleRS (isoleucyl-tRNA synthetase), sequence (P00956 whole entry): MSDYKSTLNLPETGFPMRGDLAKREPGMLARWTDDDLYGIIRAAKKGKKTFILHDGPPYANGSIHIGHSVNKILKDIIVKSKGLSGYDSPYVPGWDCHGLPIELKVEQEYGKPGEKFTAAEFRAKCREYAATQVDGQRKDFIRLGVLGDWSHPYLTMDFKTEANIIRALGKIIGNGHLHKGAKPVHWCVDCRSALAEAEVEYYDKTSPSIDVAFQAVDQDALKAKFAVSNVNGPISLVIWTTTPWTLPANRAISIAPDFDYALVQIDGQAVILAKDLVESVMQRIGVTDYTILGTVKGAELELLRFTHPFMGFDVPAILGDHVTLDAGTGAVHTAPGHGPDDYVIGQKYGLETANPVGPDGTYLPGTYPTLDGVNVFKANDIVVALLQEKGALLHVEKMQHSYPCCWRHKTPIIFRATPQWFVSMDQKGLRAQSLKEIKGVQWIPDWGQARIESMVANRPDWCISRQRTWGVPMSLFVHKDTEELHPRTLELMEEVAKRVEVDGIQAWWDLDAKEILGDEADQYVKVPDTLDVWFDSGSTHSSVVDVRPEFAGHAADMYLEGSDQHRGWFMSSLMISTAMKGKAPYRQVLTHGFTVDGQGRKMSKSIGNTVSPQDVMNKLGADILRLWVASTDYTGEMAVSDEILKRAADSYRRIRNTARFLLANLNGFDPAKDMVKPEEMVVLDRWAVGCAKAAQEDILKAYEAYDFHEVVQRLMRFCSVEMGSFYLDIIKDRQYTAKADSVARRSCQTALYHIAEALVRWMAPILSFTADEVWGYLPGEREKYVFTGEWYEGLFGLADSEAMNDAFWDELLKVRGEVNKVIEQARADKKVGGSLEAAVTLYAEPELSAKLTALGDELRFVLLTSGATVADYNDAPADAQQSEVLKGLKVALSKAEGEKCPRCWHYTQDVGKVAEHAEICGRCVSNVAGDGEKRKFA

Take `CC[C@H](C)[C@H](N)C(=O)NS(=O)(=O)OC[C@H]1O[C@@H](CCn2nnc(-c3ccc(Oc4ccccc4)cc3)n2)[C@H](O)[C@@H]1O` [Compound X, [S-(R*,R*)]-3,6-anhydro-1,2-dideoxy-1-[5-(4-phenoxyphenyl)-2H-tetrazol-2-yl]-D-allo-heptitol 7-(2-amino-3-methyl-1-oxopentyl)sulfamate]: the Protective % was 0% in assay [1], 0% in assay [2] (4 mg/kg sc), 80% in assay [2] (20 mg/kg sc) and 100% in assay [2] (100 mg/kg sc). The “Number of Alive” value stood at 0 in assay [1] (of 5 mice), 0 in assay [2] (4 mg/kg sc), 4 in assay [2] (20 mg/kg sc) and 5 in assay [2] (100 mg/kg sc). For the same molecule, the ED50 in assay [2] (Streptococcus pyogenes, 168 h, sc, mice surviving 7 days after inoculation, multidrug resistant, read-out: PD50 (50% protective dose)) amounted to 16.5 mg/kg. In addition, the concentration for half-maximal inhibition (IC50) in assay [3] came to 1.3 nM. In addition, the MIC in assay [4] worked out at 100 µg/mL (≈ 169 µM); in assay [5], 10 µg/mL (≈ 16.9 µM); in assay [6], 10 µg/mL (≈ 16.9 µM).
